Measured values reported in patent US20110263594A1, “NOVEL TRIAZOLO(4,3-A)PYRIDINE DERIVATIVES, PROCESS FOR THE PREPARATION THEREOF, USE THEREOF AS MEDICAMENTS, PHARMACEUTICAL COMPOSITIONS AND NOVEL USE, IN PARTICULAR AS MET INHIBITORS” (SANOFI-AVENTIS, priority 2008, published 2011).

Assays:
MET [1] = biological target: T1, MET (Homo sapiens, UniProt P08581); assay: Test A: HTRF MET assay in 96-well format; format: biochemical; set-up: The His-Tev-MET (956-1390) recombinant DNA in pFastBac (Invitrogen) is transfected into insect cells; His-Tev (histidine tag with TEV cleavage site) (N, cleaved yes); made in house; host or cells: SF21 insect cells (baculovirus, pFastBac); settings: MET 5 nM, 10 μM ATP, poly-(GAT)
Protocol: The His-Tev-MET (956-1390) recombinant DNA in pFastBac (Invitrogen) is transfected into insect cells and, after several viral amplification steps, the final baculovirus stock is tested for the expression of the protein of interest.
After infection for 72 h at 27° C. with the recombinant virus, SF21 cell cultures are harvested by centrifugation and the cell pellets are stored at −80° C.
The cell pellets are resuspended in the lysis buffer (buffer A [50 mM HEPES, pH 7.5, 250 mM NaCl, 10% glycerol, 1 mM TECP]; +cocktail of protease inhibitors, Roche Diagnostics, without EDTA, ref 1873580), stirred at 4° C. until the mixture is homogeneous, and then lysed mechanically using a “Dounce” type apparatus.
After centrifugation, the lysis supernatant is incubated for 2 h at 4° C. with nickel chelate resin (His-Trap 6 Fast Flow™, GE HealthCare). After washing with 20 volumes of buffer A, the suspension is packed into a column, and the proteins are eluted with a gradient of buffer B (buffer A+290 mM imidazole).
The fractions containing the protein of interest, for the purpose of electrophoretic analysis (SDS PAGE), are combined, concentrated by ultrafiltration (10 kDa cut-off) and injected onto an exclusion chromatography column (Superdex™ 200, GE HealthCare) equilibrated in buffer A.
After enzymatic cleavage of the histidine tag, the protein is reinjected onto a new IMAC nickel chelate chromatography column (His-Trap 6 Fast Flow™, GE HealthCare) equilibrated in buffer A. The fractions eluted with a gradient of buffer B and containing the protein of interest after electrophoresis (SDS PAGE) are finally combined and stored at −80° C.
For the production of autophosphorylated protein, the previous fractions are incubated for 1 h at ambient temperature after the addition of 2 mM ATP, 2 mM MgCl2 and 4 mM Na3VO4. After the reaction has been stopped with 5 mM of EDTA, the reaction mixture is injected onto a HiPrep desalifying column (GE HealthCare) pre-equilibrated in buffer A+4 mM Na3VO4, and the fractions containing the protein of interest (SDS PAGE analysis) are combined and stored at −80° C. The degree of phosphorylation is verified by mass spectrometry (LC-MS) and by peptide mapping.
MET at a final concentration of 5 nM is incubated in a final volume of 50 μl of enzymatic reaction in the presence of the test molecule (for a final concentration range of from 0.17 nM to 10 μM, 3% DMSO final concentration) in 10 mM MOPS buffer, pH 7.4, 1 mM DTT, 0.01% Tween 20. The reaction is initiated with the substrate solution to obtain final concentrations of 1 μg/ml poly-(GAT), 10 μM ATP and 5 mM MgCl2. After incubation for 10 min at ambient temperature, the reaction is stopped with a 30 μl mix so as to obtain a final solution of 50 mM Hepes, pH 7.5, 500 mM potassium fluoride, 0.1% BSA and 133 mM EDTA in the presence of 80 ng of streptavidin 61SAXLB Cis-Bio Int. and 18 ng of anti-phosphotyrosine Mab PT66-Europium Cryptate per well. After incubation for 2 hours at ambient temperature, the reading is taken at 2 wavelengths, 620 nm and 665 nm, on a reader for the TRACE/HTRF technique, and the % inhibition is calculated from the 665/620 ratios.
Target sequence in this assay (P08581 956-1390): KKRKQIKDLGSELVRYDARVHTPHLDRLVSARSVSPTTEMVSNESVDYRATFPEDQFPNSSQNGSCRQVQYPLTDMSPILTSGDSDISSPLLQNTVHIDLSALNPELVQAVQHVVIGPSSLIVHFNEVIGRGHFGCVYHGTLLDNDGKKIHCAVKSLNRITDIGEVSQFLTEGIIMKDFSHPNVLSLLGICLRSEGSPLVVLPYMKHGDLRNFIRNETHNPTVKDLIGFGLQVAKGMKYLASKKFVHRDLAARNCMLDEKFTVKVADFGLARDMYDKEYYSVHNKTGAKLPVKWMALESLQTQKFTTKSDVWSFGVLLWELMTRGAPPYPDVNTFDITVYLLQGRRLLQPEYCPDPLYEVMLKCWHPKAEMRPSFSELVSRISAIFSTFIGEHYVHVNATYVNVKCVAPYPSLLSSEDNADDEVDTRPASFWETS

MET [2] = biological target: T1, MET; assay: Test B: inhibition of the autophosphorylation of MET, ELISA technique (pppY1230,1234,1235) in MKN45 cells; format: cell-based; set-up: endogenous in cells; host or cells: MKN45 cells; settings: 1 h treatment, phosphoMET ELISA
Protocol: B) Test B: Inhibition of the autophosphorylation of MET; ELISA technique (pppY1230,1234,1235) a) Cell lysates: MKN45 cells are seeded into 96-well plates (cell coat BD polylysine) at 20 000 cells/well in 200 μl in RPMI medium+10% FCS+1% L-glutamine. They are left to adhere for 24 hours in an incubator.
The cells are treated the day after seeding with the products at 6 concentrations, in duplicate, for 1 h. At least 3 control wells are treated with the same final amount of DMSO.
Product dilution: Stock at 10 mM in pure DMSO—range from 10 mM to 30 μM with an increment of 3 in pure DMSO—intermediate dilutions to 1/50 in culture medium and then removal of 10 μl added directly to the cells (200 μl): final range of 10 000 to 30 nM.
At the end of the incubation, the supernatant is carefully removed and rinsing is performed with 200 μl of PBS. Next, 100 μl of lysis buffer are placed directly in the wells on ice and incubated at 4° C. for 30 minutes. Lysis buffer: 10 mM Tris HCl, pH 7.4, 100 mM NaCl, 1 mM EDTA, 1 mM EGTA, 1% Triton X-100, 10% glycerol, 0.1% SDS, 0.5% deoxycholate, 20 mM NaF, 2 mM Na3VO4, 1 mM PMSF and cocktail of antiproteases.
The 100 μl of lysates are transferred into a V-bottomed polypropylene plate and the ELISA is performed immediately, or the plate is frozen at −80° C.
70 μl of kit dilution buffer+30 μL of cell lysate, or 30 μl of lysis buffer for the blanks, are added to each well of the kit plate. Incubation is carried out for 2 h with gentle agitation at ambient temperature.
The wells are rinsed 4 times with 400 μl of kit washing buffer. Incubation is carried out with 100 μl of anti-phospho MET antibody for 1 hour at ambient temperature.
The wells are rinsed 4 times with 400 μl of kit washing buffer. Incubation is carried out with 100 μl of anti-rabbit HRP antibody for 30 minutes at ambient temperature (except for the wells of chromogen alone).
The wells are rinsed 4 times with 400 μl of kit washing buffer. 100 μL of chromogen are introduced and incubation is carried out for 30 minutes in the dark at ambient temperature.
The reaction is stopped with 100 μl of stop solution. The plate is read without delay at […], 0.1 second on a Wallac Victor plate reader.
Target sequence in this assay (P08581 25-1390): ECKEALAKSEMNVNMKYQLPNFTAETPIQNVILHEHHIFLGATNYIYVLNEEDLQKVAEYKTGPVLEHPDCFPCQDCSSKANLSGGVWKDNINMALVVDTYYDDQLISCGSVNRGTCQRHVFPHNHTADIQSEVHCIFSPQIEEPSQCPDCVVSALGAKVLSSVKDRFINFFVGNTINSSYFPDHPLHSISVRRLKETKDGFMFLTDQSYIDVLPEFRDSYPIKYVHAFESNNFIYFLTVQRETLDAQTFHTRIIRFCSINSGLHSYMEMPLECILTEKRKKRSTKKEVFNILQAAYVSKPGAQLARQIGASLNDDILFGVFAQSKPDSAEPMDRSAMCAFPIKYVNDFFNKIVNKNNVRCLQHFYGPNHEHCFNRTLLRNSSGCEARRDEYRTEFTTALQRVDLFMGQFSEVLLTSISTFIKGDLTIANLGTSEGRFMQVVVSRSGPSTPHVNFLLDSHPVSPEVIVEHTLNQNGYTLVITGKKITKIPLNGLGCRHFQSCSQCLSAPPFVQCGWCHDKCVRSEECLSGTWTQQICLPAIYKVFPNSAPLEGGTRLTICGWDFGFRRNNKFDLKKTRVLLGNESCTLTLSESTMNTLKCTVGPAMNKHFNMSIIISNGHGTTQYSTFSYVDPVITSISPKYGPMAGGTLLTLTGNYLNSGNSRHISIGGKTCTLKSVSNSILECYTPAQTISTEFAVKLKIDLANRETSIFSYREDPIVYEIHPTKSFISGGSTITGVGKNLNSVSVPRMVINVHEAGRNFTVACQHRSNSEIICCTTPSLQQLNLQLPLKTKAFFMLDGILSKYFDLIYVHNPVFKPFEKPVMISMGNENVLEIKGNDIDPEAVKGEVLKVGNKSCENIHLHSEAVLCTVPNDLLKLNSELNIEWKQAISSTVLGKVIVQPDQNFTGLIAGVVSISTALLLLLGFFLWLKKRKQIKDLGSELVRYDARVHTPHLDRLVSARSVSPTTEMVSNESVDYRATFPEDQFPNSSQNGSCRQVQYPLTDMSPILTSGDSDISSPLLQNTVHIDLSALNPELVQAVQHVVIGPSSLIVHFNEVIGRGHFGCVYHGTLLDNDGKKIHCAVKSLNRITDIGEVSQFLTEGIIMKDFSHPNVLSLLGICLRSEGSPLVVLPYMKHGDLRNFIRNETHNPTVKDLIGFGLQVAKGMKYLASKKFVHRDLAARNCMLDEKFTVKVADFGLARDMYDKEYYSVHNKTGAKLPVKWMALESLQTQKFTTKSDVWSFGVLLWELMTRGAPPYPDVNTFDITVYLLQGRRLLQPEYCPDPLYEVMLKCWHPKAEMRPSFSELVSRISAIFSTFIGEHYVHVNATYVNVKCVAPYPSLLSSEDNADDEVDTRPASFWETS

[3] = test system: HCT116 cells and MKN45 cells; assay: Test C: measurement of cell proliferation by 14C-thymidine pulse; format: cell-based; settings: 14C-thymidine incorporation, 96 h of treatment; cell line not given
Protocol: The cells are seeded into Cytostar 96-well plates in 180 μl for 4 hours at 37° C. and 5% CO2: HCT116 cells in a proportion of 2500 cells per well in DMEM medium+10% foetal calf serum+1% L-glutamine, and MKN45 cells in a proportion of 7500 cells per well in RPMI medium+10% foetal calf serum+1% L-glutamine. After these 4 hours of incubation, the products are added in 10 μl as a […] concentrated solution according to the dilution method mentioned for the ELISA. The products are tested at 10 concentrations in duplicate from 10 000 nM to 0.3 nM with an increment of 3.
After treatment for 72 h, 10 μl of ^14C-thymidine at 10 μCi/ml are added so as to obtain 0.1 μCi per well. The ^14C-thymidine incorporation is measured on a Micro-Beta machine (Perkin-Elmer) after 24 hours of pulse and 96 h of treatment.
All the steps of the assay are automated on BIOMEK 2000 or TECAN stations.

SMILES	IC50 (MET [1])	IC50 (MET [2])	melting point	IC50 [3]
CN1CCN(CCNC(=O)Nc2nc3ccc(Sc4nnc5ccccn45)cc3s2)CC1 [Example 4, 1-[2-(4-methylpiperazin-1-yl)ethyl]-3-[6-([1,2,4]triazolo[4,3-a]pyridin-3-ylsulphanyl)-1,3-benzothiazol-2-yl]urea]	< 100 nM	< 100 nM	180 to 185 °C	< 1000 nM
COCCNC(=O)Nc1nc2ccc(Sc3nnc4ccccn34)cc2s1 [Example 5, 1-(2-methoxyethyl)-3-[6-([1,2,4]triazolo[4,3-a]pyridin-3-ylsulphanyl)-1,3-benzothiazol-2-yl]urea]	< 100 nM	< 100 nM	252 to 257 °C	< 1000 nM
Nc1nc2ccc(Sc3nnc4ccc(-c5ccc(F)cc5)cn34)cc2s1 [Example 7, 6-{[6-(4-fluorophenyl)[1,2,4]triazolo[4,3-a]pyridin-3-yl]sulphanyl}-1,3-benzothiazol-2-amine]	< 100 nM	< 100 nM	> 264 °C	< 1000 nM
O=C(Nc1nc2ccc(Sc3nnc4ccc(-c5cn[nH]c5)cn34)cc2s1)C1CC1 [Example 11, N-(6-{[6-(1H-pyrazol-4-yl)[1,2,4]triazolo[4,3-a]pyridin-3-yl]-sulphanyl}-1,3-benzothiazol-2-yl)cyclopropanecarboxamide]	< 100 nM	< 100 nM	> 260 °C	< 1000 nM
Cc1ccc(-c2ccc3nnc(Sc4ccc5nc(NC(=O)C6CC6)sc5c4)n3c2)cc1F [Example 12, N-(6-{[6-((3-fluoro-4-methyl)phenyl)[1,2,4]triazolo[4,3-a]pyridin-3-yl]sulphanyl}-1,3-benzothiazol-2-yl)cyclopropanecarboxamide]	< 100 nM	< 100 nM	191 °C	< 1000 nM
O=C(Nc1nc2ccc(Sc3nnc4ccc(-c5cccc(F)c5)cn34)cc2s1)C1CC1 [Example 13, N-(6-{[6-(3-fluorophenyl)[1,2,4]triazolo[4,3-a]pyridin-3-yl]sulphanyl}-1,3-benzothiazol-2-yl)cyclopropanecarboxamide]	< 100 nM	< 100 nM	> 260 °C	< 1000 nM
